Reference: patent publication US20070275366A1, “Regulation of Sperm Function” (priority 2003, published 2007)

Tests used:
[1] = test system: sperm from volunteers and patients attending fertility clinics; settings: background statement, cited from earlier work
bull spermatozoa = experiment: Chlortetracycline (CTC) fluorescence assay of capacitation state; format: cell-based; settings: Example 6
Description: An alternative method of assessing capacitation is by using the CTC assay (DasGupta S, Mills C L, Fraser L R. Ca(2+)-related changes in the capacitation state of human spermatozoa assessed by a chlortetracycline fluorescence assay. J Reprod Fertil. 1993 September; 99(1):135-43.; Fraser L R, Herod J E. Expression of capacitation-dependent changes in chlortetracycline fluorescence patterns in mouse spermatozoa requires a suitable glycolysable substrate. J Reprod Fertil. 1990 March; 88(2):611-21). In this method, used in Example 6 below, patterns of staining distinguish non-capacitated, capacitated and acrosome reacted sperm. Chlortetracycline (CTC) solution: CTC (750 μM CTC in Tris (20 mM)-NaCl (130 mM), DL-cysteine (5 mM), buffer (20 mM Tris/130 mM NaCl, pH 7.8). Spermatozoa samples were obtained from healthy bulls (Semex, UK). All semen samples used in this study had been frozen and thawed. Each sample was packed in 0.25 ml plastic straws. The frozen spermatozoa straw (0.25 ml) was rapidly thawed by plunging it into a 37° C. water bath. When the sample was thawed, the straw was dried with a tissue, kept horizontal and cut both ends into a pre-warmed TALP medium. Spermatozoa were washed twice by TALP medium and centrifugation at 600 g for 10 minutes, then re-suspended with TALP pre-warmed to 37° C. Spermatozoa were incubated without additives, or with either angiotensin II (10^−9 moles per litre), fibronectin (5-50 μg/ml), or with both. Treated samples (45 μl) were aliquoted into foil wrapped eppendorf tubes with CTC solution (45 μl) and fixed with 12.5% paraformaldehyde, prior to viewing by […]. Three patterns of chlortetracycline fluorescent staining may be observed on bull spermatozoa: F (uncapacitated)-pattern, bright fluorescence was detected over the whole region of the sperm head; B (capacitated)-pattern, fluorescence was detected on the sperm head but not on the postacrosomal region; AR (acrosome-reacted)-pattern, weak fluorescence was observed over the sperm head, and a bright band was sometimes observed in the equatorial region.

[2] = test system: frozen-thawed spermatozoa (Bull semen samples); experiment: Sperm motility by microscopy on heated stage (percentage of motile spermatozoa with linear progressive movement); format: cell-based; settings: for increase in sperm motility compared to fibronectin alone / increase in sperm motility compared to the RGD plus fibronectin sample: Angiotensin II 10^−9 moles/L added to fibronectin plus RGDS sample
Method: Each sperm sample was packed and frozen in 0.25 ml plastic straws. The frozen spermatozoa straw (0.25 ml) was rapidly thawed by plunging it into a 37° C. water bath. When the sample was thawed, the straw was dried with a tissue, kept horizontal and cut both ends into a pre-warmed TALP medium.
Spermatozoa were washed twice by TALP medium and centrifugation at 600×g for 10 minutes, then re-suspended with TALP pre-warmed to 37° C. The motility of the frozen-thawed spermatozoa was assessed at 37° C. using thermal plates. Sperm motility and morphology was estimated by microscopical observation on a warm 37° C. stage. Semen (10 μl) was covered by a cover glass (18 mm×18 mm) and at least 5 microscopic fields were examined. Motility was expressed as the percentage of motile spermatozoa with linear progressive movement in the sample (see Vinson, G. P., Puddefoot, J. R., Ho, M. M., Barker, S., Mehta, J., Saridogan, E. and Djahanbakhch, O. (1995). “Type 1 angiotensin II (AT1) receptors in sperm”, Journal Of Endocrinology, 144, 369-378). The prepared sperm sample were incubated with additives at 37° C. in a water bath as described in each example, and assayed for motility as before.
All incubations were carried out at 37° C., using water bath and heated stage. Semen samples (10 μl) were applied to preheated (37° C.) slides and placed on the microscope heated stage and examined. The number of motile sperm were counted in the control sample at zero time, and in the treated samples after the incubation times indicated.

sperm = experiment: Sperm viability, carboxyfluorescein diacetate / propidium iodide live-dead stain; format: cell-based; settings: Example 7; fibronectin 5 μg/ml, stored at room temperature, after 3 days; untreated control 75% to 18%
Method: Stock solutions: carboxyfluorescein diacetate (0.46 mg/ml in dimethyl sulphoxide), propidium iodide (0.5 mg/ml isotonic saline), formaldehyde (10 μl formalin to 150 μl distilled water). Fluorescence stain: 50 μl carboxyfluorescein and 50 μl of propidium iodide to 2 ml sperm extender, plus 100 μl formaldehyde.
Semen were diluted with stain (1:1) dilution and incubated at room temperature […] for 15 min. Samples washed with extender, and examined for live and dead sperm.

[3] = Example 3, fibronectin 2 μg/l added to sperm pre-incubated with RGDS, incubation of 5-10 minutes

## CCCCc1nc(Cl)c(CO)n1Cc1ccc(-c2ccccc2-c2nn[nH]n2)cc1 [losartan]
[1]; specific AT1 receptor antagonist
  effect on the action of angiotensin II on the percentage of motile sperm: inhibits the action of angiotensin II on the percentage of motile sperm

## Angiotensin II (DRVYIHPF; Angiotensin-2; UniProt P01019 25-32, looked up) [peptide used as capacitating agent]
Bull spermatozoa; angiotensin II only (10^−9 moles per litre), 60 min incubation
  capacitated sperm (B pattern): 45%
Bull spermatozoa; angiotensin II only (10^−9 moles per litre), 60 min incubation, control about 60%, 55% by 30 min
  uncapacitated sperm (F pattern): ~18%
[2]; Example 1
  increase in sperm motility compared to fibronectin alone: 71%
  increase in sperm motility compared to the RGD plus fibronectin sample: 62%
[2]; Example 1, 10 minutes
  increase in sperm motility compared to fibronectin alone: 43%
  increase in sperm motility compared to the RGD plus fibronectin sample: 34%
[2]; Example 1, 20 minutes
  increase in sperm motility compared to fibronectin alone: 64%
  increase in sperm motility compared to the RGD plus fibronectin sample: 55%
[2]; Example 2, Angiotensin II 10^−9 moles/L added to fibronectin (2 μg/l) sample, 10 minutes
  sperm motility: 64%
[2]; Example 2, Angiotensin II 10^−9 moles/L added to fibronectin (2 μg/l) sample, 20 minutes
  sperm motility: 62%
[2]; Example 2, Angiotensin II 10^−9 moles/L added to fibronectin (2 μg/l) sample, 3040 minutes
  sperm motility: 62%
[2]; Example 3, Angiotensin II 10^−9 moles/L added to fibronectin+RGDS sample, 10 minutes
  sperm motility: 43%
[2]; Example 3, Angiotensin II 10^−9 moles/L added to fibronectin+RGDS sample, 20 minutes
  sperm motility: 54%
[2]; Example 3, Angiotensin II 10^−9 moles/L added to fibronectin+RGDS sample, 3040 minutes
  sperm motility: 54%
[2]; Example 4, Angiotensin II 10^−9 moles/L added to vitronectin sample, 5 to 35 minutes
  change in sperm motility: significant increase
[2]; Example 5, Angiotensin II 10^−9 moles/L added to laminin sample, 10 to 40 minutes
  change in sperm motility: significant increase
[1]
  effect on percentage of motile sperm and linear velocity: may increase both the percentage of motile sperm and their linear velocity

## Arg-Gly-Asp-Ser (RGDS; printed: Arg-Gly-Asp-Ser) [commercially available tetrapeptide used as a source of RGD]
[2]; Example 3, pre-incubation with RGDS 5×10^6 moles/L for 5 min, control 62% at time zero
  decrease in sperm motility: 19%

## fibronectin
sperm
  sperm remaining viable (living sperm): 48%
Bull spermatozoa; fibronectin 5 μg/ml
  patterns of sperm staining (CTC): very similar to the untreated controls
[2]; Example 1, fibronectin 2 μg/l, incubation of 5-10 minutes, 37° C., control 70% at time zero
  sperm motility: 14%
[2]; Example 2, fibronectin 2 μg/l, incubation of 5-10 minutes, control 79% at time zero
  sperm motility: 8%
[2]; [3]
  decrease of motility compared to the RGD treated sample: 28%
  decrease of motility compared to the control: 47%

## laminin: extracellular matrix protein (250 μg/ml, Sigma)
[2]; Example 5, laminin 2 μg/l, 10 min, 37° C.
  change in total sperm motility: significant decrease

B1: vitronectin: extracellular matrix protein (250 μg/ml, Sigma) (protein, UniProt P04004 20-478, looked up)
Vitronectin: DQESCKGRCTEGFNVDKKCQCDELCSYYQSCCTDYTAECKPQVTRGDVFTMPEDEYTVYDDGEEKNNATVHEQVGGPSLTSDLQAQSKGNPEQTPVLKPEEEAPAPEVGASKPEGIDSRPETLHPGRPQPPAEEELCSGKPFDAFTDLKNGSLFAFRGQYCYELDEKAVRPGYPKLIRDVWGIEGPIDAAFTRINCQGKTYLFKGSQYWRFEDGVLDPDYPRNISDGFDGIPDNVDAALALPAHSYSGRERVYFFKGKQYWEYQFQHQPSQEECEGSSLSAVFEHFAMMQRDSWEDIFELLFWGRTSAGTRQPQFISRDWHGVPGQVDAAMAGRIYISGMAPRPSLAKKQRFRHRNRKGYRSQRGHSRGRNQNSRRPSRATWLSLFSSEESNLGANNYDDYRMDWLVPATCEPIQSVFFFSGDKYYRVNLRTRRVDTVDPPYPRSIAQYWLGCPAPGHL
[2]; Example 4, vitronectin 2 μg/l, 5 minutes, 37° C.
  change in total sperm motility: highly significant decrease
